Read-outs that look alike come from different tables or passages of the source.
Legend:
[1] = target: T1, Gardos channel of erythrocytes (Homo sapiens, UniProt O15554); assay: Gardos Channel Assay; assay type: cell-based; conditions: for inhibition at 10 µM: read-out: Gardos Channel Assay Inhibition (%)
T1 construct: endogenous in cells; host or cells: erythrocytes

A549 = assay: SRB antiproliferative assay, A549; assay type: cell-based; conditions: Homo sapiens
Method: (§1) The antiproliferative assays described herein were performed using standard aseptic procedures and universal precautions for the use of tissues. Cells were propagated using RPMI 1640 media (Gibco) containing 2% N 5% fetal calf serum (Biowhittaker) at 37° C., 5% CO2 and 95% humidity. The cells were passaged using Trypsin (Gibco). Prior to addition of test compound, the cells were harvested, the cell number counted and seeded at 10,000 cells/well in 100 μl 5% fetal calf serum (FCS) containing RPMI medium in 96-well plates and incubated overnight at 37° C., 5% CO2 and 95% humidity.
(§2) Following incubation, the cellular protein was determined with the ulforhodamine B (SRB) assay (Skehan P et al., 1990, J. Natl. Cancer Inst. 82:1107-1112).

HeLa = assay: SRB antiproliferative assay, HeLa; assay type: cell-based; conditions: Homo sapiens, HeLa, 120 h, read-out: SRB assay IC50
Method: as §1, §2

MMRU = assay: SRB antiproliferative assay, MMRU; assay type: cell-based, human; conditions: Homo sapiens
Method: Cells were propagated using RPMI 1640 media (Gibco) containing 2% N 5% fetal calf serum (Biowhittaker) at 37° C., 5% CO2 and 95% humidity. The cells were passaged using Trypsin (Gibco). Prior to addition of test compound, the cells were harvested, the cell number counted and seeded at 10,000 cells/well in 100 μl 5% fetal calf serum (FCS) containing RPMI medium in 96-well plates and incubated overnight at 37° C., 5% CO2 and 95% humidity.
as §2

CaSki = assay: SRB antiproliferative assay, CaSki; assay type: cell-based; conditions: Homo sapiens, Ca-Ski, 120 h, read-out: SRB assay IC50
Method: as §1, §2

SK-MEL-28 = assay: SRB antiproliferative assay, SK-MEL-28; assay type: cell-based; conditions: Homo sapiens, SK-MEL-28, 120 h, read-out: SRB assay IC50
Method: as §1, §2

HT29 = assay: SRB antiproliferative assay, HT29; assay type: cell-based; conditions: Homo sapiens
Method: as §1, §2

HEPG2 = assay: SRB antiproliferative assay, HEPG2; assay type: cell-based; conditions: Homo sapiens
Method: as §1, §2

HUVEC = assay: SRB assay, normal cells HUVEC; assay type: cell-based, human; conditions: Homo sapiens, HUVEC, 120 h, read-out: SRB assay IC50
Method: as §1, §2

HTB174 = assay: SRB antiproliferative assay, HTB174; assay type: cell-based; conditions: 120 h, read-out: SRB assay IC50
Method: as §1, §2

MDA-MB-231 = assay: SRB antiproliferative assay, MDA-MB-231; assay type: cell-based; conditions: Homo sapiens, 120 h, read-out: SRB assay IC50
ACHN = assay: SRB antiproliferative assay, ACHN; assay type: cell-based; conditions: Homo sapiens, ACHN, 120 h, read-out: SRB assay IC50
Method: as §1, §2

DU-145 = assay: SRB antiproliferative assay, DU-145; assay type: cell-based; conditions: Homo sapiens, DU-145, 120 h, read-out: SRB assay IC50
Method: as §1, §2

GM = assay: SRB assay, normal cells GM; assay type: cell-based, human; conditions: Homo sapiens, 120 h, read-out: SRB assay IC50
Method: as §1, §2

HCT-15 = assay: SRB antiproliferative assay, HCT-15; assay type: cell-based; conditions: Homo sapiens, HCT-15, 120 h, read-out: SRB assay IC50
Method: as §1, §2

MCF7 = assay: SRB antiproliferative assay, MCF7; assay type: cell-based; conditions: Homo sapiens
Method: as §1, §2

L929 = assay: SRB assay, normal cells L929; assay type: cell-based, mouse; conditions: Mus musculus, L929, 120 h, read-out: SRB assay IC50
Method: as §1, §2

U118MG = assay: SRB antiproliferative assay, U118MG; assay type: cell-based; conditions: Homo sapiens, U-118-MG
Method: as §1, §2

Gardos channel = Gardos channel (Homo sapiens, UniProt O15554); parameters: host or cells: sickle erythrocytes (printed for Clotrimazole only); conditions: cited from earlier work
Gardos channel, sequence (O15554 whole entry): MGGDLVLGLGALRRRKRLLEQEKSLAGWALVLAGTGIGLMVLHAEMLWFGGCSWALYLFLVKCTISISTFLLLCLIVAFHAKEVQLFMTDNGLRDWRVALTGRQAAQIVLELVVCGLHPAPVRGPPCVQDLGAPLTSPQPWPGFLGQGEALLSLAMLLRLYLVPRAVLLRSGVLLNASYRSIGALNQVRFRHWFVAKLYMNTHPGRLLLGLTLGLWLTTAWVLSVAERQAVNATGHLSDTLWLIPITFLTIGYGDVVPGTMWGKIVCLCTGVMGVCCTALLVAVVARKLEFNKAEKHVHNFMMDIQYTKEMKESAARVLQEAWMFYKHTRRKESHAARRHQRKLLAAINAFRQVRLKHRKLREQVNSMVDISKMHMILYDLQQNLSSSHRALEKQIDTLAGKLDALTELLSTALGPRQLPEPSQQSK

[2] = test system: NIH 3T3 mouse fibroblast cells; assay: Mitogenic Assay (mitogen-induced cell proliferation); assay type: cell-based
3T3 = assay: SRB assay, normal cells 3T3; assay type: cell-based, mouse; conditions: Mus musculus, NIH3T3, 120 h, read-out: SRB assay IC50
Method: as §1, §2

[3] = erythrocytes, read-out: Gardos Channel Assay IC50
[4] = A549, 120 h, read-out: SRB assay IC50
[5] = 120 h, read-out: SRB assay IC50
[6] = HT-29, 120 h, read-out: SRB assay IC50
[7] = HepG2, 120 h, read-out: SRB assay IC50
[8] = MCF7, 120 h, read-out: SRB assay IC50
[9] = measured at 10 μM compound, NIH 3T3 cells
[10] = Mus musculus, NIH3T3, measured at 10 μM compound, NIH 3T3 cells, read-out: Mitogenic Assay Inhibition (%)
[11] = NIH3T3, NIH 3T3 mouse fibroblast cells, mitogen-induced proliferation, read-out: Mitogenic Assay IC50
[12] = NIH 3T3 mouse fibroblast cells, mitogen-induced proliferation, read-out: Mitogenic Assay IC50

T1 sequence (O15554 whole entry): as above

O/N=C1\CC(c2ccccc2)(c2ccccc2)c2ccccc21 [Compound 4, 1-N-Oxime-3,3-Diphenylindane]
melting point: 138 to 141 °C | IC50 [1, 3]: 1350 nM | inhibition at 10 µM ([1]; measured at 10 μM compound): 100%

COc1cc([C@@H]2c3cc4c(cc3[C@@H](O[C@@H]3O[C@@H]5CO[C@@H](C)O[C@H]5[C@H](O)[C@H]3O)[C@H]3COC(=O)[C@H]23)OCO4)cc(OC)c1O [VP-16, Etoposide (VP-16), reference compound]
IC50 (A549; [4]): < 1250 nM | IC50 (A549; A549, read-out: SRB IC50): 2300 nM | IC50 (HeLa): < 1250 nM | IC50 (MMRU; [5]): < 1250 nM | IC50 (MMRU; read-out: SRB IC50): < 2500 nM | IC50 (CaSki): 1800 nM | IC50 (SK-MEL-28): < 1250 nM | IC50 (HT29; [6]): < 1250 nM | IC50 (HT29; HT-29, read-out: SRB IC50): 20000 nM | IC50 (HEPG2; [7]): < 1250 nM | IC50 (HUVEC): < 1250 nM | IC50 (HTB174): < 1250 nM | IC50 (MDA-MB-231): < 1250 nM | IC50 (ACHN): < 1250 nM | IC50 (DU-145): < 1250 nM | IC50 (GM): 1400 nM | IC50 (HCT-15): 1300 nM | IC50 (MCF7; [8]): < 1250 nM | IC50 (MCF7; MCF7, read-out: SRB IC50): < 2500 nM | IC50 (L929): < 1250 nM | IC50 (U118MG; [5]): 2200 nM

Clc1ccc(CCC(Cn2ccnc2)Sc2c(Cl)cccc2Cl)cc1 (stereo not drawn) [butoconazole]
Gardos channel inhibition in vitro (Gardos channel): inhibit the Gardos channel in vitro

NC(=O)CC1C(=O)c2ccccc2C1(c1ccccc1)c1ccccc1 (stereo not drawn) [Compound 12, 2-Acetamide-3,3-diphenylindanone]
melting point: 169 to 171 °C | IC50 [1, 3]: 189 nM | inhibition at 10 µM ([1]; measured at 10 μM compound): 99.5%

Clc1ccccc1COC1CC(c2ccccc2)(c2ccccc2)c2ccccc21 (stereo not drawn) [Compound 18, 3,3-Diphenyl-1-indanyl α-(2-chlorotoluyl) ether]
Mitogenic Assay Inhibition (%) [2, 9]: 73.0% | Gardos Channel Assay Inhibition (%) ([1]; measured at 10 μM compound): 0%

c1ccc(C2(c3ccccc3)CC(OCc3ccc4ccccc4c3)c3ccccc32)cc1 (stereo not drawn) [Compound 16, 3,3-Diphenyl-1-indanyl 2-naphthylmethyl ether]
inhibition at 10 µM [2, 10]: 75% | inhibition at 10 µM ([1]; measured at 10 μM compound): 0%

3,3-Diphenyl-1-indanyl α-(4-methyltoluate) ether [Compound 17]
Mitogenic Assay Inhibition (%) [2, 9]: 76.0% | Gardos Channel Assay Inhibition (%) ([1]; measured at 10 μM compound): 0%

O=C1CC(c2ccc(Cl)cc2)(c2ccc(Cl)cc2)c2ccc(Cl)cc21 [Compound 8, 6-Chloro-3,3-di(4-chlorophenyl)indanone]
IC50 (A549; [4]): 8900 nM | IC50 (A549; A549, read-out: SRB IC50): > 10000 nM | IC50 (HeLa): > 10000 nM | IC50 (MMRU; [5]): > 10000 nM | IC50 (MMRU; read-out: SRB IC50): 3300 nM | IC50 (CaSki): 6800 nM | IC50 (SK-MEL-28): > 10000 nM | IC50 (HT29; [6]): 8300 nM | IC50 (HT29; HT-29, read-out: SRB IC50): > 10000 nM | IC50 (HEPG2; [7]): 6400 nM | IC50 (HEPG2; HepG2, read-out: SRB IC50): 7800 nM | IC50 (HUVEC): > 10000 nM | IC50 (HTB174): > 10000 nM | IC50 (MDA-MB-231): > 10000 nM | IC50 (ACHN): > 10000 nM | IC50 (DU-145): > 10000 nM | IC50 ([2]; Mus musculus, NIH3T3, read-out: Mitogenic Assay IC50): 2000 nM | inhibition at 10 µM ([2]; Mus musculus, NIH3T3, read-out: Mitogenic Assay Inhibition (%)): 97% | IC50 (GM): > 10000 nM | IC50 (HCT-15): > 10000 nM | melting point: 134 °C | IC50 (MCF7; [8]): 5500 nM | IC50 (MCF7; MCF7, read-out: SRB IC50): > 10000 nM | IC50 (L929): > 10000 nM | IC50 (U118MG; [5]): > 10000 nM | IC50 (U118MG; read-out: SRB IC50): > 10000 nM | IC50 (3T3): > 10000 nM

O=C1CC(c2ccccc2)(c2ccccc2)c2ccccc21 [Compound 2, 3,3-Diphenylindanone]
IC50 [1, 3]: 1010 nM | inhibition at 10 µM ([1]; measured at 10 μM compound): 100%

Clc1ccc(COC(Cn2ccnc2)c2ccc(Cl)cc2Cl)cc1 (stereo not drawn) [econazole]
Gardos channel inhibition in vitro (Gardos channel): inhibit the Gardos channel in vitro

O=C1c2ccccc2C(c2ccccc2)(c2ccccc2)C1CCCO (stereo not drawn) [Compound 19, 3-(3′,3′-diphenyl-2′-indanyl-1′-one)propanol]
melting point: 98 °C | IC50 [1]: 5950 nM | inhibition at 10 µM [1]: 43.7%

NC1=Nc2ccccc2C1(c1ccccc1)c1ccccc1 [Compound 1]
inhibition at 10 µM [2, 10]: 97% | IC50 [2, 11]: 700 nM | IC50 [1, 3]: 419 nM | inhibition at 10 µM ([1]; measured at 10 μM compound): 98%

Clc1ccc(COC(Cn2ccnc2)c2ccc(Cl)cc2Cl)c(Cl)c1 (stereo not drawn) [miconazole]
Gardos channel inhibition in vitro (Gardos channel): inhibit the Gardos channel in vitro

N#CC1OC12CC(c1ccccc1)(c1ccccc1)c1ccccc12 (stereo not drawn) [Compound 5, Spiro[3,3-diphenyl-2,3-dihydro(1H)indene-1,3′-2′-cyanooxirane]]
Mitogenic Assay Inhibition (%) [2, 9]: 29.0% | Gardos Channel Assay Inhibition (%) ([1]; measured at 10 μM compound): 67.3%

N#CCC1C(O)c2ccccc2C1(c1ccccc1)c1ccccc1 (stereo not drawn) [Compound 13, 2-Cyanomethyl-3,3-diphenylindanol]
inhibition at 10 µM [2, 10]: 12% | melting point: 79 to 85 °C | IC50 [1, 3]: 1590 nM | inhibition at 10 µM ([1]; measured at 10 μM compound): 99.5%

N#CCC1C(=O)c2ccccc2C1(c1ccccc1)c1ccccc1 (stereo not drawn) [Compound 9, 2-cyanomethyl-3,3-diphenylindanone]
IC50 [1, 3]: 505 nM | inhibition at 10 µM [1]: 100%

N#CCC1C(=O)c2cc(Cl)ccc2C1(c1ccc(Cl)cc1)c1ccc(Cl)cc1 (stereo not drawn) [Compound 10, 6-Chloro-2-cyanomethyl-3,3-di(4′-chlorophenyl)indanone]
inhibition at 10 µM [2, 10]: 98% | IC50 [2, 11]: 3300 nM | inhibition at 10 µM ([1]; measured at 10 μM compound): 49.5%

2-(Ethyl-2′-(1,3-dioxolane))-1-hydroxy-3,3-diphenylindene [Compound 20]
Mitogenic Assay Inhibition (%) [2, 9]: 81.0% | Gardos Channel Assay Inhibition (%) ([1]; measured at 10 μM compound): 0%

C=CCOC1c2ccccc2C(c2ccccc2)(c2ccccc2)C1CC=C (stereo not drawn) [Compound 6, 2-(2′-Propenyl)-1-(2′-propenoxy)-3,3-diphenylindane]
IC50 [2, 12]: 3400 nM | Mitogenic Assay Inhibition (%) [2, 9]: 90.0% | Gardos Channel Assay Inhibition (%) ([1]; measured at 10 μM compound): 35.0%

NC(=O)CC1C(O)c2ccccc2C1(c1ccccc1)c1ccccc1 (stereo not drawn) [Compound 14, 2-Acetamide-3,3-diphenylindanol]
inhibition at 10 µM [2, 10]: 3% | melting point: 218 to 220 °C | IC50 [1, 3]: 2960 nM | inhibition at 10 µM ([1]; measured at 10 μM compound): 90.5%

OC1CC(c2ccccc2)(c2ccccc2)c2ccccc21 (stereo not drawn) [Compound 3, 1-Hydroxy-3,3-Diphenylindane]
melting point: 133 to 135 °C | IC50 [1, 3]: 819 nM | inhibition at 10 µM [1]: 100%

CC(=O)OC1CC(c2ccccc2)(c2ccccc2)c2ccccc21 (stereo not drawn) [Compound 7, 1-Acetoxy-3,3-diphenylindane]
melting point: 90 °C | IC50 [1]: 1150 nM | inhibition at 10 µM ([1]; measured at 10 μM compound): 88%

COC(=O)CC1C(=O)c2ccccc2C1(c1ccccc1)c1ccccc1 (stereo not drawn) [Compound 15, 3,3-Diphenylindanone-2-methyl acetate]
IC50 [2, 12]: 7500 nM | Mitogenic Assay Inhibition (%) [2, 9]: 80.0% | IC50 [1, 3]: 2900 nM | Gardos Channel Assay Inhibition (%) ([1]; measured at 10 μM compound): 54.8%

— patent publication US20020128256A1, “Methods for the treatment or prevention of inflammatory diseases characterized by abnormal cell proliferation” (priority 1997, published 2002)
